Patent US10782295B2, “Cysteine-reactive ligand discovery in proteomes” (THE SCRIPPS RESEARCH INSTITUTE, priority 2013, dated 2020)

Experiments:
AHSG = assay: competitive isoTOP-ABPP, MDA-MB-231 soluble proteome; type: binding, human; settings: 100 μM LDE, 60 min; peptide C*DSSPDSAEDVR
Method: (§1) Here, we envisioned that isoTOP-ABPP could be advanced to discover and quantify reactions between cysteines in proteomes and any electrophilic compound. In this advanced, ‘competitive’ version of isoTOP-ABPP (FIG. 1a), a proteome is treated with an electrophile (experimental sample) or DMSO (control sample). Both proteomic samples are then labeled with the IA probe and conjugated by CuAAC to light and heavy azide-biotin tags, respectively. The light and heavy samples are then mixed and subjected to our described isoTOP-ABPP protocol for enrichment, identification, and quantification of IA-labeled cysteines^30. Electrophile-modified cysteines are quantified by measuring the MS1 chromatographic peak ratios (R values) for heavy (DMSO-treated) over light (electrophile-treated) samples, with higher R values reflecting greater sensitivity to the electrophile. In this format, competitive isoTOP-ABPP can assay electrophiles against 1000+ cysteines in parallel directly in native proteomes without requiring any chemical modification to the electrophiles themselves.
(§2) Competitive isoTOP-ABPP experiments were performed in quadruplicate using the soluble proteome of the human breast cancer cell line MDA-MB-231 cell line. Proteomes were treated with 100 μM HNE, 15d-PGJ2, or 2-HD, for 60 minutes, followed by the IA-probe (100 μM, 60 min) A total of ˜1400 cysteine reactivities were quantified across the aggregate data set, with at least 900 cysteine reactivities quantified for each LDE (FIG. 2a) more than 750 of which were quantified for all the three electrophiles.
HNE was purchased from EMD biosciences, 15d-PGJ2 was purchased from Cayman Chemicals and 2-HD was purchased from Santa Cruz Biotechnology. Proteome samples were diluted to a 4 mg protein/mL solution in PBS. […]
IA-probe labeled peptides were identified by SEQUEST2 and DTASelect3, and the quantification of heavy/light ratios (isoTOP-ABPP ratios, R) was performed by an in-house software (CIMAGE) as previously described. […]

ZAK = ZAK (Homo sapiens, UniProt Q9NYL2); assay: as above; type: binding; set-up: directly in native proteomes; endogenous in cells; host or cells: MDA-MB-231; settings: 60 min; for R value (isoTOP-ABPP ratio heavy/light) for IA-labeled cysteine of ZAK: 100 μM LDE, peptide FDDLQFFENC*GGGSFGSVYR
Method: as §1, §2
The MDA-MB-231 cell proteome was treated with varying concentrations of HNE (5, 10, 50, 100 and 500 μM) for 60 min and then the IA-labeling profile of each reaction was quantitatively compared to a DMSO-control sample by isoTOP-ABPP.
HNE was purchased from EMD biosciences, 15d-PGJ2 was purchased from Cayman Chemicals and 2-HD was purchased from Santa Cruz Biotechnology. Proteome samples were diluted to a 4 mg protein/mL solution in PBS. For each profiling experiment, one aliquot of the proteome sample (0.5 mL) was treated with 100 μM of LDE using 5 μL of a 10 mM stock and the other aliquot was treated with 5 μL of either ethanol (for HNE and 15d-PGJ2) or DMSO (for 2-HD) as control. For the concentration-dependent profiling experiments using HNE, aliquots of the proteomes (0.5 mL each) were treated with 5, 10, 50, 100 and 500 μM of HNE using 5 μL of 0.5, 1.0, 5, 10 and 50 mM of stock solution, respectively. After 60 minutes of treatment at room temperature, both the LDE-treated and control aliquots were passed through a NAP-5 Sephadex column (GE healthcare) to remove any unreacted LDE. The volume of each aliquot was increased to 1 mL with the concentration at 2 mg/mL after this step. […]

Chain of ZAK (Q9NYL2 whole entry): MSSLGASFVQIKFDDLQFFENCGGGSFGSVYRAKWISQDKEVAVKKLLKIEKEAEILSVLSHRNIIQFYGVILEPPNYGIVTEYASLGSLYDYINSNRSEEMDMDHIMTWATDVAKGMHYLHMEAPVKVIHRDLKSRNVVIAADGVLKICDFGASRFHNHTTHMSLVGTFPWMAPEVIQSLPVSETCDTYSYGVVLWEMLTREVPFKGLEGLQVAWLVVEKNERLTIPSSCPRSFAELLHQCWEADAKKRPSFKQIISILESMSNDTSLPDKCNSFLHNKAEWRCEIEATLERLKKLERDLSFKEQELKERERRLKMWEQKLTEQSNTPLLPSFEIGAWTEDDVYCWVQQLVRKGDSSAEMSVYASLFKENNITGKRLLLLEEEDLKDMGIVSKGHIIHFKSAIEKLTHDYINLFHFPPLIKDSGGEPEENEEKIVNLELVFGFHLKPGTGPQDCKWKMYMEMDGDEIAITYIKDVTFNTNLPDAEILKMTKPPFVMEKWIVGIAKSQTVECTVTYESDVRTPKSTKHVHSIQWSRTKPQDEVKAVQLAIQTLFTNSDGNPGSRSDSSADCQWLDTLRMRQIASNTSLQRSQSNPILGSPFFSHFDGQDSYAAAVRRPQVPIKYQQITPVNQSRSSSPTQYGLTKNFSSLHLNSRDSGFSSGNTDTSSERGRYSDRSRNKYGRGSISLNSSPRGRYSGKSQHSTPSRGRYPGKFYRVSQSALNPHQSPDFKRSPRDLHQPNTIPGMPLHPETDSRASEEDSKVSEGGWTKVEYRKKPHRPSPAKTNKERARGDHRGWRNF

CCCCCCCCCCCCC/C=C/C=O [2-HD, 2-trans-hexadecenal]
R value (isoTOP-ABPP ratio heavy/light) for IA-labeled cysteine of AHSG (AHSG): 1.12
R value (isoTOP-ABPP ratio heavy/light) for IA-labeled cysteine of ZAK (ZAK): 1.05

CCCCCC(O)/C=C/C=O (stereo not shown) [4-HNE, 4-Hydroxynonenal]
R value (isoTOP-ABPP ratio heavy/light) for IA-labeled cysteine of AHSG (AHSG): 1.35
R value (isoTOP-ABPP ratio heavy/light) for IA-labeled cysteine of ZAK (ZAK): >15
blockade of IA-probe labeling of Cys22 of ZAK (ZAK; 100 μM): completely blocked

CCCCC/C=C/C=C1/C(=O)C=C[C@@H]1C/C=C\CCCC(=O)O [PGJ2, 15-deoxy-Δ12,14-prostaglandin J2]
R value (isoTOP-ABPP ratio heavy/light) for IA-labeled cysteine of AHSG (AHSG): 5.73
R value (isoTOP-ABPP ratio heavy/light) for IA-labeled cysteine of ZAK (ZAK): 4.24
